Measurements reported in US11365199B2, “Pyrazole compounds as modulators of FSHR and uses thereof” (Merck Patent GmbH, priority 2013, dated 2022).

Target: T1, FSHR (Homo sapiens, UniProt P23945)
T1 construct: expressed in transfected cells; host or cells: CHO (Cho-FSHR-LUC-1-1-43)
T1 sequence (P23945 18-695): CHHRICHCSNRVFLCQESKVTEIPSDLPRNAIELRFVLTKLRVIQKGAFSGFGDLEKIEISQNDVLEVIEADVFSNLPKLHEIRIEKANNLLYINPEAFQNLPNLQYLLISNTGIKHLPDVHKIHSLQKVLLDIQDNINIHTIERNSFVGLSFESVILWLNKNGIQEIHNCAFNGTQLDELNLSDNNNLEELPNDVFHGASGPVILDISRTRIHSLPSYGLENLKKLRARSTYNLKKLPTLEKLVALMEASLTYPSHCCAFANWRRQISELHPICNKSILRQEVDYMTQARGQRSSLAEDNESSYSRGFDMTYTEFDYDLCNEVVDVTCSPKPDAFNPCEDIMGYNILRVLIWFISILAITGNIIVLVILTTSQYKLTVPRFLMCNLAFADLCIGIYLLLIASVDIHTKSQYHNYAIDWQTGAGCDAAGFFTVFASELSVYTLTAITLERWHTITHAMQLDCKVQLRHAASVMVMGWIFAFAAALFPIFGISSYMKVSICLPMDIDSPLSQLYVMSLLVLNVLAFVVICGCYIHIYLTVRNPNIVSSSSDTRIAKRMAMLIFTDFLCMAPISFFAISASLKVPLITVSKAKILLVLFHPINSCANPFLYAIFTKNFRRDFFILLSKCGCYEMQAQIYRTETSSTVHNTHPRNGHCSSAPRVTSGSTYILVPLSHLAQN
Assay: EC50 of cyclic AMP production in CHO FSHR cells + EC20 FSH (Assay A)
Assay type: cell-based
Settings: not given
Experimental: EC50 of Cyclic AMP Production in CHO FSHR Cells+EC20 FSH (Assay A)
2500 Cho-FSHR-LUC-1-1-43 cells were plated per well in 5 μl of phenol red free DMEM/F12+1% FBS. Cells were plated in 384 well, solid white low volume plates (Greiner 784075) by Multidrop. Cells were assayed by adding 100 μl of 2×EC20 FSH/IBMX in DMEM/F12+0.1% BSA) by Multidrop to 2 μl of test compound stamped in 384 well plates (compounds are diluted 1:50). The final FSH concentration was […], and the final IBMX concentration was 200 μM. The compound plate map was as follows: Column 1: 2 μl of DMSO; Column 2: 2 μl of DMSO; Columns 3-12 and 13-24: 2 μl of test compound, diluted 1:4 in 100% DMSO, or 2 μl of FSH, diluted 1:4 in DMEM/F12+0.1% BSA. The starting concentration for FSH was 50 nM (final concentration was 0.5 nM). Furthermore, Column 23 contained 2 μl of EC100 FSH reference (100×) (diluted in DMEM/F12+0.1% BSA) at a final concentration of 0.5 nM, and Column 24 contained 2 μl of 1 mM AS707664/2 reference compound 2. 5 μl of compound+EC20 FSH mixture were transferred to cell plates (1:2 dilution into 5 μl of cell media) The plates were incubated at 37° C. for 1 h. 10 μl of mixed HTRF (CisBio #62AM4PEC) reagents were added per well and incubated at room temperature for 1 h. The plates were read on Envision using the cAMP HTRF—low volume 384 well protocol. The readout was the calculated fluorescence ratio (665 nm/620 nm). Values given in percent (%) indicate the percental effect (response) at a certain concentration of agonist relative to the maximum response of the FSH standard.

SMILES	EC50
[2H]C([2H])([2H])OCC(C)(C)N(C(=O)c1nn(-c2ccsc2)c2c1COc1cc(OC)c(C=C(C)C)cc1-2)C([2H])([2H])[2H] [Compound 58]	< 100 nM

Same assay, conditions: CHO FSHR cells + EC20 FSH, cAMP HTRF; read-out: Assay A: EC50 of cyclic AMP production

EC50	SMILES
1000 to 5000 nM	COc1cc2c(cc1C=C(C)C)-c1c(c(C(=O)N3CCC(O)C3)nn1-c1ccsc1)CO2 (centres unmarked) [Compound 47, (3-Hydroxy-pyrrolidin-1-yl)-[7-methoxy-8-(2-methyl-propenyl)-1-thiophen-3-yl-1,4-dihydro-chromeno[4,3-c]pyrazol-3-yl]-methanone]
< 100 nM	COc1cc2c(cc1C=C(C)C)-c1c(c(C(=O)N3CCCC3(C)CO)nn1-c1ccsc1)CO2 (centres unmarked) [Compound 48, (2-Hydroxymethyl-2-methyl-pyrrolidin-1-yl)-[7-methoxy-8-(2-methyl-propenyl)-1-thiophen-3-yl-1,4-dihydro-chromeno[4,3-c]pyrazol-3-yl]-methanone]
100 to 1000 nM	[2H]C([2H])([2H])OC1CCN(C(=O)c2nn(-c3ccsc3)c3c2COc2cc(OC)c(C=C(C)C)cc2-3)C1 (centres unmarked) [Compound 49]
< 100 nM	[2H]C([2H])([2H])OCC1(C)CCCN1C(=O)c1nn(-c2ccsc2)c2c1COc1cc(OC)c(C=C(C)C)cc1-2 (centres unmarked) [Compound 51]
< 100 nM	[2H]C([2H])([2H])N(CCN1CCOC1=O)C(=O)c1nn(-c2ccsc2)c2c1COc1cc(OC)c(C=C(C)C)cc1-2 [Compound 56]
1000 to 5000 nM	COc1cc2c(cc1C=C(C)C)-c1c(c(C(=O)NCCCNC(=O)C3CCC3)nn1-c1ccsc1)CO2 [Compound 57, 7-methoxy-8-(2-methyl-propenyl)-1-thiophen-3-yl-1,4-dihydro-chromeno[4,3-c]pyrazole-3-carboxylic Acid [3-(cyclobutanecarbonyl-amino)-propyl]-amide]
100 to 1000 nM	[2H]C([2H])([2H])OCC(C)(C)NC(=O)c1nn(-c2ccsc2)c2c1COc1cc(OC)c(C=C(C)C)cc1-2 [Compound 59]
100 to 1000 nM	[2H]C([2H])([2H])N(CCNC(=O)c1nn(-c2ccsc2)c2c1COc1cc(OC)c(C=C(C)C)cc1-2)C(C)=O [Compound 60]
< 100 nM	[2H]C([2H])([2H])N(CCN(C(=O)c1nn(-c2ccsc2)c2c1COc1cc(OC)c(C=C(C)C)cc1-2)C([2H])([2H])[2H])C(C)=O [Compound 61]
100 to 1000 nM	[2H]C([2H])([2H])N(CCCN(C(=O)C1CCC1)C([2H])([2H])[2H])C(=O)c1nn(-c2ccsc2)c2c1COc1cc(OC)c(C=C(C)C)cc1-2 [Compound 69]

The next lines start with the molecule.

SMILES	EC50
COc1cc2c(cc1-c1sc(C)nc1C)-c1c(c(C(=O)N(C)C(C)(C)C)nn1-c1ccsc1)CO2 [Compound 53, 8-(2,4-Dimethyl-thiazol-5-yl)-7-methoxy-1-thiophen-3-yl-1,4-dihydro-chromeno[4,3-c]pyrazole-3-carboxylic acid tert-butyl-methyl-amide]	< 100 nM
COc1cc2c(cc1-c1ccc(F)s1)-c1c(c(C(=O)N(C)C(C)(C)C)nn1-c1ccsc1)CO2 [Compound 54, 8-(5-Fluoro-thiophen-2-yl)-7-methoxy-1-thiophen-3-yl-1,4-dihydro-chromeno[4,3-c]pyrazole-3-carboxylic acid tert-butyl-methyl-amide]	100 to 1000 nM
COc1cc2c(cc1-c1ccn(C)c1)-c1c(c(C(=O)N(C)C(C)(C)C)nn1-c1ccsc1)CO2 [Compound 55, 7-Methoxy-8-(1-methyl-1H-pyrrol-3-yl)-1-thiophen-3-yl-1,4-dihydro-chromeno[4,3-c]pyrazole-3-carboxylic acid tert-butyl-methyl-amide]	< 100 nM
COc1cc2c(cc1-c1cn[nH]c1)-c1c(c(C(=O)NCCN3CCOC3=O)nn1-c1ccsc1)CO2 [Compound 62, 7-Methoxy-8-(1H-pyrazol-4-yl)-1-thiophen-3-yl-1,4-dihydro-chromeno[4,3-c]pyrazole-3-carboxylic acid [2-(2-oxo-oxazolidin-3-yl)-ethyl]-amide]	100 to 1000 nM
COc1cc2c(cc1-c1ccnn1C)-c1c(c(C(=O)N(C)C(C)(C)C)nn1-c1ccsc1)CO2 [Compound 64, 7-Methoxy-8-(2-methyl-2H-pyrazol-3-yl)-1-thiophen-3-yl-1,4-dihydro-chromeno[4,3-c]pyrazole-3-carboxylic acid tert-butyl-methyl-amide]	< 100 nM
COc1cc2c(cc1-c1cc[nH]n1)-c1c(c(C(=O)N(C)C(C)(C)C)nn1-c1ccsc1)CO2 [Compound 65, 7-Methoxy-8-(1H-pyrazol-3-yl)-1-thiophen-3-yl-1,4-dihydro-chromeno[4,3-c]pyrazole-3-carboxylic acid tert-butyl-methyl-amide]	< 100 nM
COc1cc2c(cc1-c1cnn(C)c1)-c1c(c(C(=O)N(C)C(C)(C)C)nn1-c1ccsc1)CO2 [Compound 66, 7-Methoxy-8-(1-methyl-1H-pyrazol-4-yl)-1-thiophen-3-yl-1,4-dihydro-chromeno[4,3-c]pyrazole-3-carboxylic acid tert-butyl-methyl-amide]	< 100 nM
COc1cc2c(cc1-c1c(C)noc1C)-c1c(c(C(=O)N(C)C(C)(C)C)nn1-c1ccsc1)CO2 [Compound 67, 8-(3,5-Dimethyl-isoxazol-4-yl)-7-methoxy-1-thiophen-3-yl-1,4-dihydro-chromeno[4,3-c]pyrazole-3-carboxylic acid tert-butyl-methyl-amide]	< 100 nM
COc1cc2c(cc1C1=CCN(C)CC1)-c1c(c(C(=O)N(C)C(C)(C)C)nn1-c1ccsc1)CO2 [Compound 68, 7-Methoxy-8-(1-methyl-1,2,3,6-tetrahydro-pyridin-4-yl)-1-thiophen-3-yl-1,4-dihydro-chromeno[4,3-c]pyrazole-3-carboxylic acid tert-butyl-methyl-amide]	< 100 nM
COc1cc2c(cc1-c1cncnc1)-c1c(c(C(=O)N(C)C(C)(C)C)nn1-c1ccsc1)CO2 [Compound 70, 7-Methoxy-8-pyrimidin-5-yl-1-thiophen-3-yl-1,4-dihydro-chromeno[4,3-c]pyrazole-3-carboxylic acid tert-butyl-methyl-amide]	< 100 nM
COc1cc2c(cc1-c1c[nH]nc1C)-c1c(c(C(=O)N(C)C(C)(C)C)nn1-c1ccsc1)CO2 [Compound 71, 7-Methoxy-8-(3-methyl-1H-pyrazol-4-yl)-1-thiophen-3-yl-1,4-dihydro-chromeno[4,3-c]pyrazole-3-carboxylic acid tert-butyl-methyl-amide]	< 100 nM
COc1cc2c(cc1-c1cnoc1)-c1c(c(C(=O)N(C)C(C)(C)C)nn1-c1ccsc1)CO2 [Compound 72, 8-Isoxazol-4-yl-7-methoxy-1-thiophen-3-yl-1,4-dihydro-chromeno[4,3-c]pyrazole-3-carboxylic acid tert-butyl-methyl-amide]	< 100 nM
COc1cc2c(cc1-c1cnc(C)s1)-c1c(c(C(=O)N(C)C(C)(C)C)nn1-c1ccsc1)CO2 [Compound 73, 7-Methoxy-8-(2-methyl-thiazol-5-yl)-1-thiophen-3-yl-1,4-dihydro-chromeno[4,3-c]pyrazole-3-carboxylic acid tert-butyl-methyl-amide]	< 100 nM
COc1cc2c(cc1C1=CCCO1)-c1c(c(C(=O)N(C)C(C)(C)C)nn1-c1ccsc1)CO2 [Compound 74, 8-(4,5-Dihydro-furan-2-yl)-7-methoxy-1-thiophen-3-yl-1,4-dihydro-chromeno[4,3-c]pyrazole-3-carboxylic acid tert-butyl-methyl-amide]	< 100 nM
COc1cc2c(cc1-c1ccsc1C)-c1c(c(C(=O)N(C)C(C)(C)C)nn1-c1ccsc1)CO2 [Compound 75]	< 100 nM
